# Results: PubChem BioAssay (NCI)
#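 Briefly, cells in 96-well plates were exposed to five compound concentrations for 48 h, and endpoints were estimated by linear interpolation. At the TGI there is no net growth.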
# Experiments:
# Assay in all cases: NCI tumour cell line growth inhibition, 48 h
# 786-0 renal = system: 786-0 renal
# A498 renal = system: A498 renal
# A549 NSCLC = system: A549 NSCLC
# ACHN renal = system: ACHN renal
# CCRF-CEM leukemia = system: CCRF-CEM leukemia
# COLO 205 colon = system: COLO 205 colon
# DLD-1 colon = system: DLD-1 colon
# DMS 273 small cell lung = system: DMS 273 small cell lung
# EKVX NSCLC = system: EKVX NSCLC
# HCC-2998 colon = system: HCC-2998 colon
# HCT-116 colon = system: HCT-116 colon
# HCT-15 colon = system: HCT-15 colon
# HL-60(TB) leukemia = system: HL-60(TB) leukemia
# HOP-18 NSCLC = system: HOP-18 NSCLC
# HOP-62 NSCLC = system: HOP-62 NSCLC
# HOP-92 NSCLC = system: HOP-92 NSCLC
# HT29 colon = system: HT29 colon
# IGROV1 ovarian = system: IGROV1 ovarian
# K-562 leukemia = system: K-562 leukemia
# KM12 colon = system: KM12 colon
# KM20L2 colon = system: KM20L2 colon
# LOX IMVI melanoma = system: LOX IMVI melanoma
# LXFL 529 NSCLC = system: LXFL 529 NSCLC
# M14 melanoma = system: M14 melanoma
# M19-MEL melanoma = system: M19-MEL melanoma
# MALME-3M melanoma = system: MALME-3M melanoma
# MOLT-4 leukemia = system: MOLT-4 leukemia
# NCI-H226 lung = system: NCI-H226 lung
# NCI-H23 lung = system: NCI-H23 lung
# NCI-H460 lung = system: NCI-H460 lung
# NCI-H522 lung = system: NCI-H522 lung
# OVCAR-3 ovarian = system: OVCAR-3 ovarian
# OVCAR-4 ovarian = system: OVCAR-4 ovarian
# OVCAR-5 ovarian = system: OVCAR-5 ovarian
# OVCAR-8 ovarian = system: OVCAR-8 ovarian
# RPMI-8226 leukemia = system: RPMI-8226 leukemia
# RXF 393 renal = system: RXF 393 renal
# SF-268 CNS = system: SF-268 CNS
# SF-295 CNS = system: SF-295 CNS
# SF-539 CNS = system: SF-539 CNS
# SK-MEL-2 melanoma = system: SK-MEL-2 melanoma
# SK-MEL-28 melanoma = system: SK-MEL-28 melanoma
# SK-OV-3 ovarian = system: SK-OV-3 ovarian
# SN12C renal = system: SN12C renal
# SNB-19 CNS = system: SNB-19 CNS
# SNB-78 CNS = system: SNB-78 CNS
# SR leukemia = system: SR leukemia
# SW-620 colon = system: SW-620 colon
# TK-10 renal = system: TK-10 renal
# U251 CNS = system: U251 CNS
# UACC-257 melanoma = system: UACC-257 melanoma
# UO-31 renal = system: UO-31 renal
# XF 498 CNS = system: XF 498 CNS
# CAKI-1 renal = system: CAKI-1 renal
# DMS 114 small cell lung = system: DMS 114 small cell lung
# SK-MEL-5 melanoma = system: SK-MEL-5 melanoma
# SNB-75 CNS = system: SNB-75 CNS
# UACC-62 melanoma = system: UACC-62 melanoma
compound,measurement,setting,value
Cc1cn(C2CC(OC3CCCCO3)C(CO)O2)c(=O)[nH]c1=O (configuration not stated),TGI,786-0 renal,> 100 µM
same,TGI,A498 renal,> 100 µM
same,TGI,A549 NSCLC,> 100 µM
same,TGI,ACHN renal,> 100 µM
same,TGI,CCRF-CEM leukemia,> 100 µM
same,TGI,COLO 205 colon,> 100 µM
same,TGI,DLD-1 colon,> 100 µM
same,TGI,DMS 273 small cell lung,> 100 µM
same,TGI,EKVX NSCLC,> 100 µM
same,TGI,HCC-2998 colon,> 100 µM
same,TGI,HCT-116 colon,> 100 µM
same,TGI,HCT-15 colon,> 100 µM
same,TGI,HL-60(TB) leukemia,> 100 µM
same,TGI,HOP-18 NSCLC,> 100 µM
same,TGI,HOP-62 NSCLC,> 100 µM
same,TGI,HOP-92 NSCLC,> 100 µM
same,TGI,HT29 colon,> 100 µM
same,TGI,IGROV1 ovarian,> 100 µM
same,TGI,K-562 leukemia,> 100 µM
same,TGI,KM12 colon,> 100 µM
same,TGI,KM20L2 colon,> 100 µM
same,TGI,LOX IMVI melanoma,> 100 µM
same,TGI,LXFL 529 NSCLC,> 100 µM
same,TGI,M14 melanoma,> 100 µM
same,TGI,M19-MEL melanoma,> 100 µM
same,TGI,MALME-3M melanoma,> 100 µM
same,TGI,MOLT-4 leukemia,> 100 µM
same,TGI,NCI-H226 lung,> 100 µM
same,TGI,NCI-H23 lung,> 100 µM
same,TGI,NCI-H460 lung,> 100 µM
same,TGI,NCI-H522 lung,> 100 µM
same,TGI,OVCAR-3 ovarian,> 100 µM
same,TGI,OVCAR-4 ovarian,> 100 µM
same,TGI,OVCAR-5 ovarian,> 100 µM
same,TGI,OVCAR-8 ovarian,> 100 µM
same,TGI,RPMI-8226 leukemia,> 100 µM
same,TGI,RXF 393 renal,> 100 µM
same,TGI,SF-268 CNS,> 100 µM
same,TGI,SF-295 CNS,> 100 µM
same,TGI,SF-539 CNS,> 100 µM
same,TGI,SK-MEL-2 melanoma,> 100 µM
same,TGI,SK-MEL-28 melanoma,> 100 µM
same,TGI,SK-OV-3 ovarian,> 100 µM
same,TGI,SN12C renal,> 100 µM
same,TGI,SNB-19 CNS,> 100 µM
same,TGI,SNB-78 CNS,> 100 µM
same,TGI,SR leukemia,> 100 µM
same,TGI,SW-620 colon,> 100 µM
same,TGI,TK-10 renal,> 100 µM
same,TGI,U251 CNS,> 100 µM
same,TGI,UACC-257 melanoma,> 100 µM
same,TGI,UO-31 renal,> 100 µM
same,TGI,XF 498 CNS,> 100 µM
NC(CCC(=O)Nc1ccc(O)cc1)C(=O)O (configuration not stated),TGI,786-0 renal,> 100 µM
same,TGI,A498 renal,> 100 µM
same,TGI,A549 NSCLC,> 100 µM
same,TGI,ACHN renal,> 100 µM
same,TGI,CAKI-1 renal,> 100 µM
same,TGI,CCRF-CEM leukemia,> 100 µM
same,TGI,COLO 205 colon,> 100 µM
same,TGI,DLD-1 colon,> 100 µM
same,TGI,DMS 114 small cell lung,> 100 µM
same,TGI,DMS 273 small cell lung,> 100 µM
same,TGI,EKVX NSCLC,> 100 µM
same,TGI,HCT-116 colon,> 100 µM
same,TGI,HCT-15 colon,> 100 µM
same,TGI,HL-60(TB) leukemia,> 100 µM
same,TGI,HOP-18 NSCLC,> 100 µM
same,TGI,HOP-62 NSCLC,> 100 µM
same,TGI,HOP-92 NSCLC,> 100 µM
same,TGI,HT29 colon,> 100 µM
same,TGI,K-562 leukemia,> 100 µM
same,TGI,KM12 colon,> 100 µM
same,TGI,KM20L2 colon,> 100 µM
same,TGI,LOX IMVI melanoma,> 100 µM
same,TGI,LXFL 529 NSCLC,> 100 µM
same,TGI,M14 melanoma,> 100 µM
same,TGI,MALME-3M melanoma,> 100 µM
same,TGI,MOLT-4 leukemia,> 100 µM
same,TGI,NCI-H226 lung,> 100 µM
same,TGI,NCI-H460 lung,> 100 µM
same,TGI,NCI-H522 lung,> 100 µM
same,TGI,OVCAR-3 ovarian,> 100 µM
same,TGI,OVCAR-4 ovarian,> 100 µM
same,TGI,OVCAR-5 ovarian,> 100 µM
same,TGI,OVCAR-8 ovarian,> 100 µM
same,TGI,RPMI-8226 leukemia,> 100 µM
same,TGI,RXF 393 renal,> 100 µM
same,TGI,SF-268 CNS,> 100 µM
same,TGI,SK-MEL-2 melanoma,> 100 µM
same,TGI,SK-MEL-28 melanoma,> 100 µM
same,TGI,SK-MEL-5 melanoma,> 100 µM
same,TGI,SK-OV-3 ovarian,> 100 µM
same,TGI,SN12C renal,> 100 µM
same,TGI,SNB-19 CNS,> 100 µM
same,TGI,SNB-75 CNS,> 100 µM
same,TGI,SNB-78 CNS,> 100 µM
same,TGI,SR leukemia,> 100 µM
same,TGI,SW-620 colon,> 100 µM
same,TGI,TK-10 renal,> 100 µM
same,TGI,U251 CNS,> 100 µM
same,TGI,UACC-257 melanoma,> 100 µM
same,TGI,UACC-62 melanoma,> 100 µM
same,TGI,UO-31 renal,> 100 µM
same,TGI,XF 498 CNS,> 100 µM
O=C(CC(=O)n1nc(-c2ccccc2)c(N=Nc2ccccc2Cl)c1-c1ccccc1)Nc1ccc(Cl)cc1,TGI,786-0 renal,> 83.4 µM
same,TGI,A498 renal,> 100 µM
same,TGI,A549 NSCLC,> 79.8 µM
same,TGI,ACHN renal,> 100 µM
same,TGI,CAKI-1 renal,> 100 µM
same,TGI,CCRF-CEM leukemia,> 68.5 µM
same,TGI,COLO 205 colon,> 64 µM
same,TGI,DLD-1 colon,> 65.2 µM
same,TGI,DMS 114 small cell lung,> 56.6 µM
same,TGI,DMS 273 small cell lung,> 100 µM
same,TGI,EKVX NSCLC,> 100 µM
same,TGI,HCC-2998 colon,> 100 µM
same,TGI,HCT-116 colon,> 55.8 µM
same,TGI,HCT-15 colon,> 59.9 µM
same,TGI,HL-60(TB) leukemia,> 60.5 µM
same,TGI,HOP-18 NSCLC,> 100 µM
same,TGI,HOP-62 NSCLC,> 100 µM
same,TGI,HOP-92 NSCLC,> 100 µM
same,TGI,HT29 colon,> 89.5 µM
same,TGI,IGROV1 ovarian,> 100 µM
same,TGI,K-562 leukemia,> 85.8 µM
same,TGI,KM12 colon,> 100 µM
same,TGI,KM20L2 colon,> 100 µM
same,TGI,LOX IMVI melanoma,> 59.7 µM
same,TGI,LXFL 529 NSCLC,> 100 µM
same,TGI,M14 melanoma,> 100 µM
same,TGI,M19-MEL melanoma,45.7 µM
same,TGI,MALME-3M melanoma,> 100 µM
same,TGI,MOLT-4 leukemia,> 100 µM
same,TGI,NCI-H226 lung,> 100 µM
same,TGI,NCI-H23 lung,> 100 µM
same,TGI,NCI-H460 lung,> 78.2 µM
same,TGI,NCI-H522 lung,> 100 µM
same,TGI,OVCAR-3 ovarian,> 100 µM
same,TGI,OVCAR-4 ovarian,> 100 µM
same,TGI,OVCAR-5 ovarian,> 100 µM
same,TGI,OVCAR-8 ovarian,> 100 µM
same,TGI,RPMI-8226 leukemia,> 66.1 µM
same,TGI,RXF 393 renal,> 100 µM
same,TGI,SF-268 CNS,> 100 µM
same,TGI,SF-295 CNS,> 100 µM
same,TGI,SF-539 CNS,> 100 µM
same,TGI,SK-MEL-2 melanoma,> 100 µM
same,TGI,SK-MEL-28 melanoma,> 100 µM
same,TGI,SK-MEL-5 melanoma,> 100 µM
same,TGI,SK-OV-3 ovarian,> 100 µM
same,TGI,SN12C renal,> 100 µM
same,TGI,SNB-19 CNS,> 100 µM
same,TGI,SNB-75 CNS,> 100 µM
same,TGI,SR leukemia,> 100 µM
same,TGI,SW-620 colon,> 74 µM
same,TGI,TK-10 renal,> 100 µM
same,TGI,U251 CNS,> 55.6 µM
same,TGI,UACC-257 melanoma,> 100 µM
same,TGI,UACC-62 melanoma,> 100 µM
same,TGI,UO-31 renal,> 100 µM
same,TGI,XF 498 CNS,> 100 µM
